Consider three compounds from patent US20140315754A1, “METHODS AND COMPOSITIONS FOR ASSESSING AND TREATING CANCER” (The Board of Regents of the University of Texas System, priority 2013, published 2014).

For data set [1], the system named is 5′ promoter of DCLK1 gene (L-DCLK1 expression). Kind of data set: RT-PCR expression of L/S DCLK1 in HCT-116 cells before or after 5-Aza-Cytidine. To be noted: FIG. 12B. The class given is cell-based, human. The text has this: FIG. 12 (A) Methylation of CpG sites in 5′-promoter of DCLK1-gene in cell lines/human samples; NC=normal colon; CRC=colorectal cancer. (B) Expression of L/S DCLK1 in HCT-116 cells before (−) or after (+) treatment with 5-Aza-Cytidine by RT-PCR.
Recent reports have confirmed DNA methylation of 5′ promoter of DCLK1 gene in CRCs (Vedeld et al. Epigenetics 2014, 9(3).30). Thus, DNA methylation of 5′ promoter leads to epigenetic silencing and loss of L expression in cancer cells/tumors.

Data set [2] has as its system DCLK1 positive cancer cells (CSCs). Kind of data set: In vitro relapse assay (spheroid re-growth from cancer stem cells). The class given is cell-based. The text has this:
In certain embodiments an expression vector can be used to provide an inhibitory RNA to a cell in vitro or in vivo. […] Thus accumulating evidence from literature and from our laboratory strongly supports a critical role of DCLK1 in cancer stem cell biology.

Another data set concerns COL3A1 promoter. Nature of the data set: Promoter activity of COL3A1 constructs in HCT116 cells. Format: cell-based, human. To be noted: C-Luciferase reporter, FIG. 14. The text has this:
FIG. 14 HTS Bioassay: (A) RT-PCR analysis of COL3A1 in ShC and ShD clones (5′upstream nucleotide sequence of COL3A1 gene is provided in SEQ ID NO:10). (B) The map of the promoter constructs fused to secretable Cypridina Luciferase (C-Luciferase). (C) The flow diagram of the method used to measure the promoter activity of COL3A1 constructs in HCT116 cells. (D) The promoter activity of COL3A1 constructs in HCT116 cells.
The inventors developed bioassays for […] (HTS), using promoter-reporter constructs of genes identified as being down stream of DCLK1-S, but not DCLK1-L (FIG. 15). As an example of the bioassays developed, the inventors generated promoter-reporter constructs of COL3A1 gene in pCLuc-BASIC-2 vector, based on published sequence of the Col3A1 gene (FIG. 14A-14C) and transiently transfected ShC/ShD clones of HCT-116 cells, as per protocol shown in FIG. 14D. […] Data obtained from the HTS assays with the specific bioassays will help identify specific molecules from available chemical libraries, which will then allow the development of safe and effective drugs for inhibiting tumorigenic/metastatic potential of cancer stem cells, while sparing the functions of normal stem cells in intestinal crypts, as a non-toxic treatment strategy for colorectal/pancreatic cancers, and other cancers as well, which are found to be dependent on the expression of DCLK1-S.
Background: In a reporter assay the amount or activity of a reporter protein is the signal.

For `Nc1ncn([C@@H]2O[C@H](CO)[C@@H](O)[C@H]2O)c(=O)n1` [5 aza cytidine], the “expression of L-DCLK1” value in data set [1] was “re-expression of L-DCLK1”.
Regarding `COc1cc(/C=C/C(=O)CC(=O)/C=C/c2ccc(O)c(OC)c2)ccc1O` [curcumin], in data set [2], the relapse/re-growth of spheroids result was “underwent autophagic survival and re-grew (relapse) as spheroids”.
For “shRNA: DCLK1 targeting shRNA; shrna sequence ATCGTTCTGTTATTGTAGC in pGZIP Lentiviral vector (ShD clones) (pGZIP lentiviral vector)”, the relapse/re-growth of spheroids entry in data set [2] is “eliminated relapse/re-growth of spheroids”. Further, the “promoter activity of COL3A1 constructs” value with COL3A1 promoter is on record as “loss of promoter activity”.
